Data published in ChEMBL document CHEMBL1201862, “PubChem BioAssay data set” (2004).
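These data come from cells grown in 96-well plates and exposed to compound for 48 hours at five concentrations. Here, GI50 denotes the concentration required for 50% inhibition of growth.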 Activity calls are given as the source filed them. Cut-off read from the data, not from the text of the source: active = GI50 up to about 1.1 µM and inactive = higher.

Tests used:
Assay in all cases: NCI tumour cell line growth inhibition, 48 h
HOP-92 = tested on: HOP-92
HL-60 = tested on: HL-60
COLO 205 = tested on: COLO 205
Malme-3M = tested on: Malme-3M
OVCAR-5 = tested on: OVCAR-5
SK-MEL-2 = tested on: SK-MEL-2
K562 = tested on: K562
MCF7 = tested on: MCF7
SN12C = tested on: SN12C
SNB-75 = tested on: SNB-75
EKVX = tested on: EKVX
CCRF-CEM = tested on: CCRF-CEM
SK-MEL-5 = tested on: SK-MEL-5
NCI-H522 = tested on: NCI-H522
ACHN = tested on: ACHN
SW-620 = tested on: SW-620
MDA-MB-435 = tested on: MDA-MB-435
M14 = tested on: M14
BT-549 = tested on: BT-549
TK-10 = tested on: TK-10

Compound	GI50 (HOP-92)	GI50 (HL-60)	GI50 (COLO 205)	GI50 (Malme-3M)	GI50 (OVCAR-5)	GI50 (SK-MEL-2)	GI50 (K562)	GI50 (MCF7)	GI50 (SN12C)	GI50 (SNB-75)	GI50 (EKVX)	GI50 (CCRF-CEM)	GI50 (SK-MEL-5)	GI50 (NCI-H522)	GI50 (ACHN)	GI50 (SW-620)	GI50 (MDA-MB-435)	GI50 (M14)	GI50 (BT-549)	GI50 (TK-10)
c1ccc2c(c1)c(N1CCCCC1)cc1nc3c(cc(N4CCCCC4)c4ccccc43)nc12	> 100 µM (inactive)	> 100 µM (inactive)	> 100 µM (inactive)	> 100 µM (inactive)	> 100 µM (inactive)	> 100 µM (inactive)	> 100 µM (inactive)	> 100 µM (inactive)	> 100 µM (inactive)	11.9 µM (inactive)	> 100 µM (inactive)	> 100 µM (inactive)	> 100 µM (inactive)	> 100 µM (inactive)	> 100 µM (inactive)	> 100 µM (inactive)	> 100 µM (inactive)	> 100 µM (inactive)	> 100 µM (inactive)	
CCCCCCCCCCCCCCCCNc1nc(=O)n(C2CC(O)C(CO)O2)cc1F (stereo unspecified)	10.3 µM (inactive)	5.47 µM (inactive)	12.7 µM (inactive)	10.8 µM (inactive)	18.2 µM (inactive)	19.6 µM (inactive)		1.33 µM (inactive)	12.5 µM (inactive)	5.06 µM (inactive)	14.6 µM (inactive)	> 10 µM (inactive)	11.6 µM (inactive)	5.28 µM (inactive)	0.259 µM (active)	13 µM (inactive)	12.2 µM (inactive)	8.57 µM (inactive)	16.3 µM (inactive)	11.9 µM (inactive)
CCOC(=O)c1cc2c(OC(C)=O)ccc(OC(C)=O)c2s1	1.44 µM (inactive)	0.845 µM (active)	2.17 µM (inactive)	1.93 µM (inactive)	6.19 µM (inactive)	2.62 µM (inactive)		3.03 µM (inactive)	2.25 µM (inactive)	2.07 µM (inactive)	2.82 µM (inactive)	2.16 µM (inactive)	2.29 µM (inactive)	0.301 µM (active)	1.61 µM (inactive)	2.1 µM (inactive)	2.67 µM (inactive)	1.77 µM (inactive)	2.13 µM (inactive)	6.82 µM (inactive)
COc1ccc(/C=C2\C[C@H]3[C@@H]4CC=C5C[C@@H](OC(C)=O)CC[C@]5(C)[C@H]4CC[C@]3(C)\C2=N\O)cc1OC	3.89 µM (inactive)	5.57 µM (inactive)	8.77 µM (inactive)	53 µM (inactive)	33.9 µM (inactive)	20.8 µM (inactive)	5.19 µM (inactive)	6.3 µM (inactive)	15.4 µM (inactive)	> 100 µM (inactive)	3.01 µM (inactive)	7.5 µM (inactive)	2.71 µM (inactive)	21.6 µM (inactive)	8 µM (inactive)	84.9 µM (inactive)	20.7 µM (inactive)	14.7 µM (inactive)	> 100 µM (inactive)	
Cn1c(=O)oc2cc(C(O)CN3CCN(Cc4ccc5c(c4)OCO5)CC3)ccc21 (stereo unspecified)	> 100 µM (inactive)	> 100 µM (inactive)	> 100 µM (inactive)	> 100 µM (inactive)	> 100 µM (inactive)		> 100 µM (inactive)	> 100 µM (inactive)	> 100 µM (inactive)	47 µM (inactive)	> 100 µM (inactive)	> 100 µM (inactive)		> 100 µM (inactive)	> 100 µM (inactive)	> 100 µM (inactive)	> 100 µM (inactive)	> 100 µM (inactive)	> 100 µM (inactive)	> 100 µM (inactive)
COc1ccccc1/C=C/c1c(N)ncnc1Nc1cccc(Cl)c1	0.243 µM (active)	0.282 µM (active)		30.5 µM (inactive)	31.8 µM (inactive)	18.6 µM (inactive)	0.376 µM (active)	25.8 µM (inactive)	13.5 µM (inactive)	9.53 µM (inactive)	16.7 µM (inactive)	0.16 µM (active)	22 µM (inactive)	10.8 µM (inactive)	6.56 µM (inactive)	34 µM (inactive)	16.7 µM (inactive)	26.5 µM (inactive)	19.7 µM (inactive)	14.5 µM (inactive)
COc1cccc2c1[C@H]1CO[C@H]3C4C[C@H](C(=O)O)C([C@@H](C2)N13)N4C (stereo partly specified)	1.66 µM (inactive)	1.62 µM (inactive)	1.6 µM (inactive)	2.61 µM (inactive)	2.37 µM (inactive)	1.08 µM (active)	1.47 µM (inactive)	0.491 µM (active)	1.99 µM (inactive)	1.48 µM (inactive)	4.74 µM (inactive)		1.88 µM (inactive)	0.294 µM (active)	3.85 µM (inactive)	1.98 µM (inactive)	0.0533 µM (active)	4.99 µM (inactive)	0.116 µM (active)	3.28 µM (inactive)
CC(C)C(=O)OCC1CCCN2CCCCC12 (stereo unspecified)	> 100 µM (inactive)	39.8 µM (inactive)	51.1 µM (inactive)	> 100 µM (inactive)	> 100 µM (inactive)	> 100 µM (inactive)	51.3 µM (inactive)	48.1 µM (inactive)	> 100 µM (inactive)	> 100 µM (inactive)	> 100 µM (inactive)	51.3 µM (inactive)	> 100 µM (inactive)		> 100 µM (inactive)	> 100 µM (inactive)	> 100 µM (inactive)	> 100 µM (inactive)	21.5 µM (inactive)	> 100 µM (inactive)
COc1ccc(-n2sc3ncc(-c4ccccc4)cc3c2=O)cc1	42.5 µM (inactive)	20.5 µM (inactive)	56.4 µM (inactive)		26.2 µM (inactive)	> 100 µM (inactive)		28.6 µM (inactive)	27.9 µM (inactive)	34.5 µM (inactive)	69.5 µM (inactive)	39.4 µM (inactive)	55.2 µM (inactive)		21.6 µM (inactive)	30.7 µM (inactive)	40.6 µM (inactive)	80 µM (inactive)	94 µM (inactive)	66.1 µM (inactive)
O=c1c2cc([N+](=O)[O-])ccc2n2n1Cc1ccccc1C2	> 100 µM (inactive)	> 100 µM (inactive)	> 100 µM (inactive)	> 100 µM (inactive)			> 100 µM (inactive)	> 100 µM (inactive)	> 100 µM (inactive)	> 100 µM (inactive)	31.5 µM (inactive)	> 100 µM (inactive)	84.3 µM (inactive)	64.6 µM (inactive)	> 100 µM (inactive)	> 100 µM (inactive)	> 100 µM (inactive)		76.2 µM (inactive)	> 100 µM (inactive)
O=C1c2ccccc2-c2c1c1ccccc1c(=O)n2Cc1ccco1	> 100 µM (inactive)	> 100 µM (inactive)	> 100 µM (inactive)	> 100 µM (inactive)	> 100 µM (inactive)	> 100 µM (inactive)	> 100 µM (inactive)	> 100 µM (inactive)	> 100 µM (inactive)	48.6 µM (inactive)	> 100 µM (inactive)	> 100 µM (inactive)	> 100 µM (inactive)	> 100 µM (inactive)		> 100 µM (inactive)	> 100 µM (inactive)	> 100 µM (inactive)	> 100 µM (inactive)	> 100 µM (inactive)
Cc1cc(C)c(P2C(=C(O[Si](C(C)C)(C(C)C)C(C)C)C(C)(C)C)C2(c2ccccc2)c2ccccc2)c(C)c1 (stereo unspecified)	> 100 µM (inactive)	> 100 µM (inactive)	> 100 µM (inactive)		> 100 µM (inactive)	> 100 µM (inactive)	67 µM (inactive)	> 100 µM (inactive)	> 100 µM (inactive)	88.1 µM (inactive)	> 100 µM (inactive)	> 100 µM (inactive)	> 100 µM (inactive)	62.1 µM (inactive)	> 100 µM (inactive)	> 100 µM (inactive)	> 100 µM (inactive)	> 100 µM (inactive)	> 100 µM (inactive)	> 100 µM (inactive)
CCc1nc(N)nc(N)c1-c1ccc(Cc2ccccc2)c([N+](=O)[O-])c1	1.17 µM (inactive)	< 0.01 µM (active)	0.561 µM (active)		> 55 µM (inactive)	33.9 µM (inactive)	< 0.01 µM (active)	0.0484 µM (active)	0.247 µM (active)	23.3 µM (inactive)	5.53 µM (inactive)	< 0.01 µM (active)	< 0.01 µM (active)	0.16 µM (active)	< 0.01 µM (active)	< 0.01 µM (active)	< 0.01 µM (active)	0.0144 µM (active)	13 µM (inactive)	29.5 µM (inactive)
CC(=O)O[C@@H]1CC2[C@@H](CCC3Cc4nc5c(nc4C[C@@]32C)CC2CC[C@@H]3C(CC[C@@]4(C)C3CC[C@@H]4C(C)CCCC(C)C)[C@@]2(C)C5)C2C[C@@H]3OC4(CCC(C)CO4)C(C)[C@@H]3[C@]21C (stereo partly specified)	25.6 µM (inactive)	> 100 µM (inactive)	> 100 µM (inactive)	> 100 µM (inactive)	> 100 µM (inactive)		> 100 µM (inactive)	> 100 µM (inactive)	> 100 µM (inactive)	2.74 µM (inactive)	> 100 µM (inactive)	> 100 µM (inactive)	> 100 µM (inactive)	> 100 µM (inactive)	55.7 µM (inactive)	> 100 µM (inactive)	> 100 µM (inactive)	> 100 µM (inactive)	> 100 µM (inactive)	33.1 µM (inactive)
